Results taken from patent US10960018B2, “Methods and compounds for stimulating read-through of premature termination codons” (The UAB Research Foundation, priority 2016, dated 2021).

Assays:
Assay type in all cases: cell-based, Rat
FRT G542X cells = assay: Transepithelial chloride conductance (TECC) assay in FRT G542X cells
Protocol: (§1) Stably transfected FRT cells as described herein cells were seeded onto Costar 24-well […] permeable supports at a density of ˜2×10^6 cells/filter and maintained at 37° C. with 5% CO2. Transepithelial resistance was assessed using an epithelial voltmeter to ensure the formation of tight monolayers, as defined by resistance >6 kcm^2. During initial evaluation of agents, cells were treated with compounds (10 μM), vehicle control (0.3% DMSO), or positive control (250 μg/mL G418) for 48 hours before transepithelial conductance (Gt) was assessed; subsequent studies used other concentrations of compounds. Measurements were taken at baseline, after the addition of 20 μM forskolin (FSK, a cAMP agonist that stimulates CFTR activity) and 10 μM CFTRInh-172 (a CFTR-specific inhibitor).
In the TECC assay, FRT G542X cells were treated with a single dose (10 μM) of each compound. FRT G542X cells were incubated for 48 hours with the compounds prior or vehicle control (0.3% DMSO). During the assay the baseline conductance (Gt) was initially determined prior to the acute addition of forskolin (20 μM) and VX-770 (10 μM) to stimulate CFTR activity; the CFTR inhibitor, CFTRInh-172 (10 μM), was added to inhibit CFTR activity at the end of the assay. In these experiments, an increase in CFTR conductance indicates the compounds stimulated read-through of the PTC in the constructs tested and that the CFTR was functional.
To prioritize which of the 48 read-through-positive compounds identified would be most efficacious in augmenting PTC read-through and restoring protein function, the TECC assay was repeated (in triplicate) using FRT G542X cells and FRT cells without CFTR (parental cells). Compounds (10 μM) or vehicle control (0.3% DMSO) were incubated for 48 hours with the cells. During the assay the baseline conductance (Gt) was initially determined prior to the acute addition of forskolin (20 μM) and VX-770 (10 μM) to stimulate CFTR activity; the CFTR inhibitor, CFTRInh-172 (10 μM), was added to inhibit CFTR activity at the end of the assay. G418 (250 μg/ml) was used as a positive control. In this assay, an increase in CFTR conductance indicates the compound stimulated read-through of the PTC in the constructs tested and that the CFTR was functional. The 48 compounds tested are provided in the Table 1 below (with the numerical designations corresponding to those shown in FIG. 4).
A series of functional assays was performed to evaluate the efficacy of these lead compounds in greater detail. Using FRT G542X cells, the optimal dose of each compound in augmenting chloride conductance (FIG. 5A) was determined. FRT G542X cells were incubated with compound (1 μM to 30 μM), G418 (250 μg/mL) or vehicle control (0.3% DMSO) for 48 hours. The conductance assay was conducted as described in Example 2 above. In this assay, an increase in CFTR conductance indicates the compounds stimulated read-through of the PTC in the constructs tested and that the CFTR was functional.

FRT W1282X cells = assay: Transepithelial chloride conductance assay in FRT W1282X cells; conditions: 48 hours; escin 10 μM, G418 250 μg/ml, VX-770 10 μM, VX-809 6 μM, NMDI-14 20 μg/ml, tobramycin 150, gentamicin 250 μg/ml
Protocol: as §1
Individual assays were performed as described herein.
As previously reported in the literature, the combination of CFTR correctors (such as VX-809) and CFTR potentiators (such as VX-770) act synergistically to improve CFTR function. […] Compounds alone or in the indicated combination were pre-incubated with FRT W1282X cells for 48 hours. During the assay the baseline conductance (Gt) was initially determined prior to the acute addition of forskolin (20 μM) and VX-770 (10 μM) to stimulate CFTR activity; the CFTR inhibitor, CFTRInh-172 (10 μM), was added to inhibit CFTR activity at the end of the assay. Enhancement of PTC read-through by the compounds of the present disclosure was determined by an increase in CFTR conductance. CFTR conductance also indicated the CFTR was functional as a result of the read-through of the PTC.
Compounds alone or in the indicated combination were pre-incubated with FRT G542X cells for 48 hours. […] Enhancement of PTC read-through by the compounds of the present disclosure was determined by an increase in CFTR conductance. CFTR conductance also indicated the CFTR was functional as a result of the read-through of the PTC.
It has been reported that aminoglycosides interfere with the action read-through stimulating compound. […] CFTR conductance also indicated the CFTR was functional as a result of the read-through of the PTC.
Stimulation of CFTR activity was determined by an increase in CFTR conductance. […] During the assay the baseline conductance (Gt) was initially determined prior to the acute addition of forskolin (20 μM) and GP-5 (10 μM) to stimulate CFTR activity; the CFTR inhibitor, […] (10 μM), was added to inhibit CFTR activity at the end of the assay.
The effect of the read-through stimulating compounds of the present disclosure in combination with the CFTR corrector VX-809 was further examined in FRT cells with the G542X, Y122X and W1282X mutations. […] CFTR conductance also indicated the CFTR was functional as a result of the read-through of the PTC.

[1] = test system: FRT wild-type CFTR control cells; assay: Firefly luciferase reporter assay, wild-type control; conditions: 300 to 500 μg/ml, 24 hours
Protocol: The luciferase assay was performed on a Pharmakon 1600 library to determine the efficacy of each compound in promoting read-through. 5 ul of each compound as a DMSO stock solution were dissolved in F-12 Ham medium and dispensed into separate wells of 384-well plates (Corning) using a BioMek FX. FRT cells (10,000 cells/well) containing the reporter gene construct (QXN UGAC) were then added using the Matrix WellMate. The plates were incubated for 24 hours at 37° C., 5% CO2, and 95% humidity, after which firefly luciferase activity was determined by equilibrating the plates to room temperature, adding an equal volume of Promega BrightGlo (Promega), and reading enhanced luminescence with an Envision Plate Reader (PerkinElmer) within 5 minutes. […]
To validate these cell lines, the cell lines were treated with G418, a read-through agent with established efficacy in vitro (Bedwell D M, et al.; Nat Med; 3:1280-1284; 1997), at doses up to from 300 to 500 μg/ml. An increase in luciferase activity indicates G418 stimulated read-through of the PTC in the constructs tested. […] For screening purposes, firefly luciferase levels were measured without assessment of Renilla expression as an indication of total construct expression.

SMILES	CFTR function (conductance) in presence of VX-770 and forskolin (FRT G542X cells; 48 hours, escin 10 μM, NMDI-1 80 μg/ml, NMDI-14 20 μg/ml)	CFTR function (conductance) in presence of forskolin and VX-770 (FRT W1282X cells)	incubation time of maximal effect on forskolin-induced conductance (FRT G542X cells; 250 μg/ml, 0 to 72 hours)	signal intensity at 48 hrs pre-incubation (FRT G542X cells; 250 μg/ml, relative to maximal effect at 72 hrs)	firefly luciferase activity compared to DMSO-treated vehicle [1]
CCOC(=O)c1c(NC(=O)CC2Nc3cc(C)c(C)cc3NC2=O)sc(C)c1C (stereo not drawn) [NMDI-14]	significantly increased	significantly increased			
CN[C@@H]1[C@@H](O)[C@@H](O[C@@H]2[C@@H](O)[C@H](O[C@H]3O[C@H]([C@@H](C)O)[C@@H](O)[C@H](O)[C@H]3N)[C@@H](N)C[C@H]2N)OC[C@]1(C)O [G418, geneticin]			72 h	> 75%	no significant effect
NC[C@H]1O[C@H](O[C@H]2[C@H](O)[C@@H](O[C@H]3O[C@H](CO)[C@@H](O)[C@H](N)[C@H]3O)[C@H](N)C[C@@H]2N)[C@H](N)C[C@@H]1O [tobramycin]		did not stimulate CFTR function			
